# “And” between values parts separate entries of the source, which are not always exact repeats. Equal entries are not always repeated.
# Tests used:
# [1] = test system: PaCa2 cells; assay: CoQ10 level in PaCa2 cells after CoQ10 treatment; extraction with methanol alone, LC/MS/MS detection; type: in vitro ADME, human; conditions: 100 μM CoQ10 in isopropanol, replicates 1-3
# Experimental: (§1) To further validate the utility of the spectrophotometric method for the quantitative assessment of CoQ10 in biological samples, the experiment described above was repeated using HASMC, HepG2, and PaCa2 cell lines. Further, a second set of cell samples were prepared using each of the three cell types for analysis to determine CoQ10 levels using LC/MS/MS methods routinely used in the art. Briefly, cells were plated and treated with CoQ10 in isopropanol or the CoQ10 proprietary delivery formulation as set forth above, and harvested at 3, 6, or 24 hours after plating. Cell pellets were either extracted using the method set forth above, resuspending the cells in Buffers A and B, and extracting the CoQ10 with Buffer C, or the cell pellets were sent to a diagnostic laboratory (IriSys Research & Development Inc) for quantitative assessment of CoQ10 using extraction with methanol alone followed by LC/MS/MS detection.
# [2] = test system: HepG2 cells; assay: CoQ10 level in HepG2 cells after CoQ10 treatment; extraction with methanol alone, LC/MS/MS detection; type: in vitro ADME; conditions: 100 μM CoQ10 in isopropanol, replicates 1-3
# Experimental: as §1
# [3] = test system: PaCa2 cells; assay: CoQ10 level in PaCa2 cells after CoQ10 treatment; Buffer A/B/C extraction, UV spectrophotometry at 275 nm; type: in vitro ADME, human; conditions: 100 μM CoQ10 in isopropanol, OD275 detection, replicates 1-3
# Description: (§2) The assay for quantitation of CoQ10 was used to determine the CoQ10 levels in various cells lines after CoQ10 treatment for various times. The cell lines used in the studies were the normal human aortic smooth muscle cells (HASMC), the hepatic cancer cell line HepG2, and the human pancreatic carcinoma cell line PaCa2. All cells lines are commercially available and were maintained according to instruction from the manufacturer/supplier of the cell lines.
# In the experimental trials, about 1×10^6 HASMC, HepG2, or PaCa2 cells were plated into each well of a 6 well plate. […] Immediately after trypsinization, the cells were counted to determine the total number of viable cells in the sample. […]
# The vials were incubated at 65° C. for 2 minutes in a water bath, with gentle mixing at about half way through the incubation. […] The solution was cooled to room temperature and a 75 μL aliquot of the upper phase was placed in a quartz cuvette and analyzed by UV spectrophotometry at a wavelength of 275 nm. […]
# For quantitative assessment of CoQ10 in the biological samples, a standard curve was generated essentially as set forth above (Example 2). […] Each of the samples from the serial dilution was measured at a wavelength of 275 nm in a UV spectrometer and plotted on a graph.
# A power series was used to fit the standard curve from the standard and an equation was determined. […]
# [4] = test system: HepG2 cells; assay: CoQ10 level in HepG2 cells after CoQ10 treatment; Buffer A/B/C extraction, UV spectrophotometry at 275 nm; type: in vitro ADME; conditions: for average level of CoQ10 in cells: Hep2G cells; for CoQ10 / Conc (pM/cell): HepG2 cells, OD275 detection, replicates 1-3
# Experimental: as §2
# 200 μl of various concentrations of CoQ10 in Buffer A, or Buffer A alone, were aliquoted into glass vials and 10 μl of Buffer B was added to each vial. Cells treated with various concentrations of CoQ10 were collected at predetermined time points and washed. Cell pellet samples (e.g., about 10^5-10^7 cells) were combined with 200 μl of Buffer A and 10 μl of Buffer B, and the cell pellets were resuspended in the buffer mixture. The sample mixture turned opaque upon mixing Buffers A and B with cells. The mixtures were transferred into glass vials.
# The glass vials from step 2 were warmed to 65° C. for 1 minute. The samples turned clear upon heating, and again became opaque upon cooling to room temperature.
# A 200 μl aliquot of Buffer C was added to each vial. The vials were again warmed to 65° C. The solution in the vials spontaneously partitioned into two phases, with the second extraction buffer layer (upper layer) containing substantially all of the CoQ10 material.
# A 50 μl sample of the upper extraction layer was removed and analyzed on a UV spectrometer at 275 nm. The amount of CoQ10 in each sample was determined by comparison to a standard curve.
# In the experimental trials, about 1×10^6 HASMC, HepG2, or PaCa2 cells were plated into each well of a 6 well plate. At the time of plating, the cells were treated with defined concentrations of CoQ10, in triplicate, in isopropanol or a proprietary CoQ10 delivery formulation for 3, 6, or 24 hours. After the defined incubation time, the cells were washed with cold TPBS (PBS with 100 mM Tris, pH 7.4), harvested by trypsinization, washed (2×) with 1 ml of TPBS, and pelleted by centrifugation at 1,500 RPM. Immediately after trypsinization, the cells were counted to determine the total number of viable cells in the sample.
# Cell pellets were resuspended in 200 μL of Buffer A (first extraction buffer) and 10 μL of Buffer B (surfactant/detergent). Upon addition of Buffer B, the sample became opaque and a precipitate formed. The resuspended cells were transferred to a borosilicate vial. For control samples not containing cells, the CoQ10 containing solution was added to a glass vial and hexane was added to bring the volume to 200 μl, and 10 μl of Buffer B was then added.
# The vials were incubated at 65° C. for 2 minutes in a water bath, with gentle mixing at about half way through the incubation. The sample changed from cloudy to clear during the incubation. The sample was removed from the water bath and 200 μL of Buffer C (second extraction buffer) was added to the vial. The sample partitioned into two phases, polar and non-polar. The top, non-polar, layer was clear, while a white precipitate formed the bottom of the vial. The sample was again heated at 65° C. for 1 minute with gentle mixing about half way through the incubation. The solution was cooled to room temperature and a 75 μL aliquot of the upper phase was placed in a quartz cuvette and analyzed by UV spectrophotometry at a wavelength of 275 nm. The absorption was documented.
# For quantitative assessment of CoQ10 in the biological samples, a standard curve was generated essentially as set forth above (Example 2). For each independent determination of CoQ10, the standard curve was generated by making a 50 μM CoQ10 stock solution in hexane and serially diluting of the stock material. Each of the samples from the serial dilution was measured at a wavelength of 275 nm in a UV spectrometer and plotted on a graph. […]
structure (smiles),measurement,setting,value
"COC1=C(OC)C(=O)C(C/C=C(\C)CC/C=C(\C)CC/C=C(\C)CC/C=C(\C)CC/C=C(\C)CC/C=C(\C)CC/C=C(\C)CC/C=C(\C)CC/C=C(\C)CCC=C(C)C)=C(C)C1=O [CoQ10, Coenzyme Q10]",CoQ10,[1],0.371 µM and 1.917 µM and 1.186 µM
same,Conc (pM/cell),[1],0.31 pM/cell and 0.17 pM/cell and 0.12 pM/cell
same,CoQ10,[2],2.061 µM and 1.223 µM and 1.599 µM
same,Conc (pM/cell),[2],0.34 pM/cell and 0.24 pM/cell (2×)
same,CoQ10,[3],28.46 µM and 12.5 µM and 4.05 µM
same,Conc (pM/cell),[3],1.56 pM/cell and 9.09 pM/cell and 3.2 pM/cell
same,average level of CoQ10 in cells,"[4]; 50 μM in propanol, 3 hours",14.40 pM/cell
same,average level of CoQ10 in cells,"[4]; 50 μM in propanol, 6 hours",27.07 pM/cell
same,average level of CoQ10 in cells,"[4]; 50 μM in propanol, 24 hours",37.04 pM/cell
same,average level of CoQ10 in cells,"[4]; 100 μM in propanol, 3 hours",25.20 pM/cell
same,average level of CoQ10 in cells,"[4]; 100 μM in propanol, 6 hours",34.74 pM/cell
same,average level of CoQ10 in cells,"[4]; 100 μM in propanol, 24 hours",45.43 pM/cell
same,CoQ10,[4]; 50 μM CoQ10 in isopropanol,39.76 µM and 41.84 µM and 51.45 µM
same,Conc (pM/cell),[4]; 50 μM CoQ10 in isopropanol,29.6 pM/cell and 30.7 pM/cell and 51.9 pM/cell
same,CoQ10,[4]; 100 μM CoQ10 in isopropanol,36.08 µM and 49.71 µM and 50.51 µM
same,Conc (pM/cell),[4]; 100 μM CoQ10 in isopropanol,70.7 pM/cell and 121.2 pM/cell and 101 pM/cell

# From patent publication US10114013B2, “Method for detection of coenzyme Q10” (Berg LLC, priority 2012, dated 2018)
